# Activity calls are given as the source filed them. The rule behind the calls is not given here.
# Assays:
# [1] = test system: Japanese encephalitis virus; assay: Antiviral activity against Japanese encephalitis virus Beijing infected in low viral dose challenge C57BL/6 mouse model assessed as survival rate at 4 mg/kg/day, sc once daily for 7 days administered 1 day before infection measured after 28 days post infection relative to control; format: functional; details: route subcutaneous
# [2] = test system: Japanese encephalitis virus; assay: Antiviral activity against Japanese encephalitis virus Beijing infected in low viral dose challenge C57BL/6 mouse model assessed as survival rate at 6 mg/kg/day, sc once daily for 7 days administered 1 day before infection measured after 28 days post infection relative to control; format: functional; details: route subcutaneous
# [3] = test system: Japanese encephalitis virus; assay: Antiviral activity against Japanese encephalitis virus Beijing infected in high viral dose challenge C57BL/6 mouse model assessed as survival rate at 6 mg/kg/day, ip twice daily for 9 days administered 1 day before infection measured after 28 days post infection relative to control; format: functional; details: route intraperitoneal
# [4] = test system: Japanese encephalitis virus; assay: Antiviral activity against Japanese encephalitis virus Beijing infected in low viral dose challenge C57BL/6 mouse model assessed as average day of death at 4 mg/kg/day, sc once daily for 7 days administered 1 day before infection measured after 28 days post infection; format: functional; details: route subcutaneous
# [5] = test system: Japanese encephalitis virus; assay: Antiviral activity against Japanese encephalitis virus Beijing infected in low viral dose challenge C57BL/6 mouse model assessed as average day of death at 2 mg/kg/day, sc once daily for 7 days administered 1 day before infection measured after 28 days post infection; format: functional; details: route subcutaneous
# [6] = test system: Japanese encephalitis virus; assay: Antiviral activity against Japanese encephalitis virus Beijing infected in low viral dose challenge C57BL/6 mouse model assessed as inhibition of virus-induced mortality at 4 mg/kg/day, sc once daily for 7 days administered 1 day before infection measured after 28 days post infection; format: functional, organism-based
# Mus musculus [7] = assay: Toxicity in C57BL/6 mouse assessed as change in body weight at 8 mg/kg/day, ip twice daily for 9 days administered 1 day before infection measured after 28 days post infection; format: organism-based; parameters: route intraperitoneal; details: in vivo, 672 h
# Mus musculus [8] = assay: Toxicity in C57BL/6 mouse assessed as change in body weight at 6 mg/kg/day, ip twice daily for 9 days administered 1 day before infection measured after 28 days post infection; format: organism-based; parameters: route intraperitoneal; details: in vivo, 672 h
# Mus musculus [9] = assay: Toxicity in C57BL/6 mouse assessed as change in body weight at 5 mg/kg/day, ip twice daily for 9 days administered 1 day before infection measured after 28 days post infection; format: organism-based; parameters: route intraperitoneal; details: in vivo, 672 h
# Mus musculus [10] = assay: Toxicity in C57BL/6 mouse assessed as change in body weight at 4 mg/kg/day, ip twice daily for 9 days administered 1 day before infection measured after 28 days post infection; format: organism-based; parameters: route intraperitoneal; details: in vivo, 672 h
# Mus musculus [11] = assay: Toxicity in C57BL/6 mouse assessed as change in body weight at 3 mg/kg/day, ip twice daily for 9 days administered 1 day before infection measured after 28 days post infection; format: organism-based; parameters: route intraperitoneal; details: in vivo, 672 h
# Mus musculus [12] = assay: Toxicity in C57BL/6 mouse assessed as change in body weight at 2 mg/kg/day, ip twice daily for 9 days administered 1 day before infection measured after 28 days post infection; format: organism-based; parameters: route intraperitoneal; details: in vivo, 672 h
# Mus musculus [13] = assay: Toxicity in C57BL/6 mouse assessed as mortality at 4 mg/kg/day, ip twice daily for 9 days; format: organism-based; parameters: route intraperitoneal; details: in vivo, 216 h
# Mus musculus [14] = assay: Toxicity in C57BL/6 mouse assessed as mortality at 3 mg/kg/day, ip twice daily for 9 days; format: organism-based; parameters: route intraperitoneal; details: in vivo, 216 h
# Mus musculus [15] = assay: Toxicity in C57BL/6 mouse assessed as mortality at 2 mg/kg/day, ip twice daily for 9 days; format: organism-based; parameters: route intraperitoneal; details: in vivo, 216 h
# [16] = test system: Japanese encephalitis virus; assay: Antiviral activity against Japanese encephalitis virus Beijing infected in high viral dose challenge C57BL/6 mouse model assessed as average day of death at 8 mg/kg/day, ip twice daily for 9 days administered 1 day before infection measured after 28 days post infection; format: functional; details: route intraperitoneal
# [17] = test system: Japanese encephalitis virus; assay: Antiviral activity against Japanese encephalitis virus Beijing infected in high viral dose challenge C57BL/6 mouse model assessed as average day of death at 6 mg/kg/day, ip twice daily for 9 days administered 1 day before infection measured after 28 days post infection; format: functional; details: route intraperitoneal
# [18] = test system: Japanese encephalitis virus; assay: Antiviral activity against Japanese encephalitis virus Beijing infected in high viral dose challenge C57BL/6 mouse model assessed as average day of death at 5 mg/kg/day, ip twice daily for 9 days administered 1 day before infection measured after 28 days post infection; format: functional; details: route intraperitoneal
# [19] = test system: Japanese encephalitis virus; assay: Antiviral activity against Japanese encephalitis virus Beijing infected in high viral dose challenge C57BL/6 mouse model assessed as average day of death at 4 mg/kg/day, ip twice daily for 9 days administered 1 day before infection measured after 28 days post infection; format: functional; details: route intraperitoneal
# [20] = test system: Japanese encephalitis virus; assay: Antiviral activity against Japanese encephalitis virus Beijing infected in high viral dose challenge C57BL/6 mouse model assessed as average day of death at 3 mg/kg/day, ip twice daily for 9 days administered 1 day before infection measured after 28 days post infection; format: functional; details: route intraperitoneal
# [21] = test system: Japanese encephalitis virus; assay: Antiviral activity against Japanese encephalitis virus Beijing infected in high viral dose challenge C57BL/6 mouse model assessed as average day of death at 2 mg/kg/day, ip twice daily for 9 days administered 1 day before infection measured after 28 days post infection; format: functional; details: route intraperitoneal
# [22] = test system: Japanese encephalitis virus; assay: Antiviral activity against Japanese encephalitis virus Beijing infected in high viral dose challenge C57BL/6 mouse model assessed inhibition of virus-induced mortality at 4 mg/kg/day, ip twice daily for 9 days administered 1 day before infection measured after 28 days post infection; format: functional, organism-based
# Mus musculus [23] = assay: Toxicity in C57BL/6 mouse assessed as mortality at 2 mg/kg/day, sc once daily for 7 days; format: organism-based; parameters: route subcutaneous; details: in vivo, 168 h
# Mus musculus [24] = assay: Toxicity in C57BL/6 mouse assessed as mortality at 6 mg/kg/day, sc once daily for 7 days; format: organism-based; parameters: route subcutaneous; details: in vivo, 168 h
# [25] = test system: Japanese encephalitis virus; assay: Antiviral activity against Japanese encephalitis virus Nakayama infected in african green monkey Vero cells assessed as inhibition of virus-induced cytopathic effect by MTT assay; format: functional, organism-based; details: Japanese encephalitis virus, Nakayama, Vero; read-out: IC50
# [26] = Therapeutic index, ratio of TC50 for african green monkey Vero cells to IC50 for Japanese encephalitis virus Nakayama; format: cell-based; details: read-out: TI
# Yellow fever virus = assay: Antiviral activity against Yellow fever virus Ashibi infected in african green monkey Vero cells assessed as inhibition of virus-induced cytopathic effect by MTT assay; format: functional, organism-based; details: Yellow fever virus, Ashibi, Vero; read-out: IC50
# [27] = Therapeutic index, ratio of TC50 for african green monkey Vero cells to IC50 for Yellow fever virus Ashibi; format: cell-based; details: read-out: TI
# dengue virus type 4 = assay: Antiviral activity against Dengue virus type 4 infected in african green monkey Vero cells after 6 days by plaque reduction assay; format: functional, organism-based; details: Dengue virus, Vero, 144 h; read-out: IC50
# [28] = Therapeutic index, ratio of TC50 for african green monkey Vero cells to IC50 for Dengue type 4 virus; format: cell-based; details: read-out: TI
# Punta Toro virus = assay: Antiviral activity against Punta Toro virus Adames infected in african green monkey Vero cells assessed as inhibition of virus-induced cytopathic effect by MTT assay; format: functional, organism-based
# Rift Valley fever virus = assay: Antiviral activity against Rift Valley fever virus infected in african green monkey Vero cells after 6 days by plaque reduction assay; format: functional, organism-based; details: Rift Valley fever virus, Vero, 144 h; read-out: IC50
# [29] = Therapeutic index, ratio of TC50 for african green monkey Vero cells to IC50 for Rift valley fever virus; format: cell-based; details: read-out: TI
# [30] = test system: Sandfly fever Sicilian virus; assay: Antiviral activity against Sandfly fever sicilian virus infected in african green monkey Vero cells assessed as inhibition of virus-induced cytopathic effect by MTT assay; format: functional, organism-based; details: vero
# Mus musculus [31] = assay: Toxicity in C57BL/6 mouse assessed as average day of death at 6 mg/kg/day, sc once daily for 7 days; format: organism-based; parameters: route subcutaneous; details: in vivo, 168 h
# Mus musculus [32] = assay: Toxicity in C57BL/6 mouse assessed as mortality at 4 mg/kg/day, sc once daily for 7 days; format: organism-based; parameters: route subcutaneous; details: in vivo, 168 h
# [33] = test system: Japanese encephalitis virus; assay: Antiviral activity against Japanese encephalitis virus Beijing infected in low viral dose challenge C57BL/6 mouse model assessed as average day of death at 6 mg/kg/day, sc once daily for 7 days administered 1 day before infection measured after 28 days post infection; format: functional; details: route subcutaneous
structure (smiles),measurement,setting,value
O=C1N[C@H]2[C@H](O)[C@H](O)[C@@H](O)[C@H](O)[C@@H]2c2cc3c(c(O)c21)OCO3 [PANCRATISTATIN],Activity,[1],30%
same,Activity,[2],90%
same,Activity,[3],50%
same,Activity,[4],15.4 days
same,Activity,[5],16.3 days
same,Activity,[6],Active
same,Activity,Mus musculus [7],1.5
same,Activity,Mus musculus [8],1.3
same,Activity,Mus musculus [9],1.4
same,Activity,Mus musculus [10],1.8
same,Activity,Mus musculus [11],2.1
same,Activity,Mus musculus [12],2.8
same,Activity,Mus musculus [13],Non-toxic
same,Activity,Mus musculus [14],Non-toxic
same,Activity,Mus musculus [15],Non-toxic
same,Activity,[16],12.9 days
same,Activity,[17],11.8 days
same,Activity,[18],10.4 days
same,Activity,[19],12.3 days
same,Activity,[20],12.6 days
same,Activity,[21],12.6 days
same,Activity,[22],inactive
same,Activity,Mus musculus [23],Non-toxic
same,Activity,Mus musculus [24],Non-toxic
same,IC50,[25],0.022 µg/mL
same,selectivity ratio,[26],4.2
same,IC50,Yellow fever virus,0.016 µg/mL
same,selectivity ratio,[27],4.9
same,IC50,dengue virus type 4,0.063 µg/mL
same,selectivity ratio,[28],8
same,inhibition (INH),Punta Toro virus,25%
same,IC50,Rift Valley fever virus,0.16 µg/mL
same,selectivity ratio,[29],3.1
same,IC50,[30],Not Active
same,AD50,Mus musculus [31],2.7 days
same,Activity,Mus musculus [32],Not Active
same,Activity,[33],15 days
